Legend:
[1] = system: Chinese hamster ovary cells; conditions: in words; cited from earlier work
[2] = system: MX-1 human breast tumor xenografts; assay: Autoradiographic biodistribution of Tc-99m-TG and C14-DG in nude mice bearing MX-1 tumors; format: in vivo; conditions: MX-1, center of the tumors, in words
Procedure: 3 mCi (111 MBq) of Tc-99m-5TG and 5 μCi (185 kBq) of C^14 -DG were injected at the same time into the tail vein of the mice. Autoradiogram sections including the tumors and vital organs of the mice were obtained at 20 minutes, 1 hour, and 3 hours post injection and developed using simultaneous Tc-99m and C^14 exposures of the same sections.

Row | Compound | Exclusion by hypoxic cells [1] | Distribution within tumor [2]
1 | O=C([O-])CN(CCN(CC(=O)[O-])CC(=O)[O-])CCN(CC(=O)[O-])CC(=O)[O-].[99Tc+4] [Tc-99m-DTPA] | exclusion of Tc-99m-DTPA by hypoxic cells | –
2 | C^14 -2-deoxyglucose [C^14 -DG] | – | decreased activity in this central area

— patent US6099822A, “Imaging methods and compositions” (priority 1998, dated 2000)
